{
  "source": "PubChem BioAssay (NCI)",
  "experiment_in_all_cases": "NCI tumour cell line growth inhibition, 48 h",
  "key": {"RXF-631 renal": {"system": "RXF-631 renal"}, "XF 498 CNS": {"system": "XF 498 CNS"}, "HCT-15 colon": {"system": "HCT-15 colon"}, "SK-MEL-5 melanoma": {"system": "SK-MEL-5 melanoma"}, "SF-539 CNS": {"system": "SF-539 CNS"}, "HOP-92 NSCLC": {"system": "HOP-92 NSCLC"}, "RPMI-8226 leukemia": {"system": "RPMI-8226 leukemia"}, "SK-OV-3 ovarian": {"system": "SK-OV-3 ovarian"}, "OVCAR-8 ovarian": {"system": "OVCAR-8 ovarian"}, "786-0 renal": {"system": "786-0 renal"}, "SN12C renal": {"system": "SN12C renal"}, "UO-31 renal": {"system": "UO-31 renal"}, "HT29 colon": {"system": "HT29 colon"}, "HOP-62 NSCLC": {"system": "HOP-62 NSCLC"}, "A549 NSCLC": {"system": "A549 NSCLC"}, "OVCAR-5 ovarian": {"system": "OVCAR-5 ovarian"}, "SNB-75 CNS": {"system": "SNB-75 CNS"}, "CCRF-CEM leukemia": {"system": "CCRF-CEM leukemia"}, "NCI-H226 lung": {"system": "NCI-H226 lung"}, "DLD-1 colon": {"system": "DLD-1 colon"}, "U251 CNS": {"system": "U251 CNS"}, "ACHN renal": {"system": "ACHN renal"}, "LOX IMVI melanoma": {"system": "LOX IMVI melanoma"}, "HCC-2998 colon": {"system": "HCC-2998 colon"}, "OVCAR-3 ovarian": {"system": "OVCAR-3 ovarian"}, "IGROV1 ovarian": {"system": "IGROV1 ovarian"}, "DMS 114 small cell lung": {"system": "DMS 114 small cell lung"}, "RXF 393 renal": {"system": "RXF 393 renal"}, "HCT-116 colon": {"system": "HCT-116 colon"}, "NCI-H522 lung": {"system": "NCI-H522 lung"}, "DMS 273 small cell lung": {"system": "DMS 273 small cell lung"}, "OVCAR-4 ovarian": {"system": "OVCAR-4 ovarian"}, "SF-295 CNS": {"system": "SF-295 CNS"}, "EKVX NSCLC": {"system": "EKVX NSCLC"}, "KM20L2 colon": {"system": "KM20L2 colon"}, "NCI-H460 lung": {"system": "NCI-H460 lung"}, "TK-10 renal": {"system": "TK-10 renal"}, "LXFL 529 NSCLC": {"system": "LXFL 529 NSCLC"}, "SNB-78 CNS": {"system": "SNB-78 CNS"}, "HL-60(TB) leukemia": {"system": "HL-60(TB) leukemia"}, "UACC-62 melanoma": {"system": "UACC-62 melanoma"}, "COLO 205 colon": {"system": "COLO 205 colon"}, "MOLT-4 leukemia": {"system": "MOLT-4 leukemia"}, "A498 renal": {"system": "A498 renal"}, "CAKI-1 renal": {"system": "CAKI-1 renal"}, "KM12 colon": {"system": "KM12 colon"}},
  "note": "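48-hour exposure; five concentrations; linearly interpolated endpoints. TGI: total growth inhibition.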",
  "data": [
    {"smiles": "CC(C)(CN1CCOCC1)C(=O)/C=C/c1ccc(/C=C/C(=O)C(C)(C)CN2CCOCC2)cc1", "values": [
      {"measurement": "TGI", "setting": "RXF-631 renal", "value": 3.13, "unit": "µM"},
      {"measurement": "TGI", "setting": "XF 498 CNS", "value": 2840, "unit": "nM"},
      {"measurement": "TGI", "setting": "HCT-15 colon", "value": 4.03, "unit": "µM"},
      {"measurement": "TGI", "setting": "SK-MEL-5 melanoma", "value": 3.23, "unit": "µM"},
      {"measurement": "TGI", "setting": "SF-539 CNS", "value": 3.69, "unit": "µM"},
      {"measurement": "TGI", "setting": "HOP-92 NSCLC", "value": 6.49, "unit": "µM"},
      {"measurement": "TGI", "setting": "RPMI-8226 leukemia", "value": 7.63, "unit": "µM"},
      {"measurement": "TGI", "setting": "SK-OV-3 ovarian", "value": 39.8, "unit": "µM"},
      {"measurement": "TGI", "setting": "OVCAR-8 ovarian", "value": 7.52, "unit": "µM"},
      {"measurement": "TGI", "setting": "786-0 renal", "value": 4.11, "unit": "µM"},
      {"measurement": "TGI", "setting": "SN12C renal", "value": 3.57, "unit": "µM"},
      {"measurement": "TGI", "setting": "UO-31 renal", "value": 3.15, "unit": "µM"},
      {"measurement": "TGI", "setting": "HT29 colon", "value": 1880, "unit": "nM"},
      {"measurement": "TGI", "setting": "HOP-62 NSCLC", "value": 4.79, "unit": "µM"},
      {"measurement": "TGI", "setting": "A549 NSCLC", "value": 7.42, "unit": "µM"},
      {"measurement": "TGI", "setting": "OVCAR-5 ovarian", "value": 3.26, "unit": "µM"},
      {"measurement": "TGI", "setting": "SNB-75 CNS", "value": 4.44, "unit": "µM"},
      {"measurement": "TGI", "setting": "CCRF-CEM leukemia", "value": 4.77, "unit": "µM"},
      {"measurement": "TGI", "setting": "NCI-H226 lung", "value": 5.22, "unit": "µM"},
      {"measurement": "TGI", "setting": "DLD-1 colon", "value": 1190, "unit": "nM"},
      {"measurement": "TGI", "setting": "U251 CNS", "value": 2630, "unit": "nM"},
      {"measurement": "TGI", "setting": "ACHN renal", "value": 4.92, "unit": "µM"},
      {"measurement": "TGI", "setting": "LOX IMVI melanoma", "value": 1540, "unit": "nM"},
      {"measurement": "TGI", "setting": "HCC-2998 colon", "value": 3.26, "unit": "µM"},
      {"measurement": "TGI", "setting": "OVCAR-3 ovarian", "value": 2460, "unit": "nM"},
      {"measurement": "TGI", "setting": "IGROV1 ovarian", "value": 4.47, "unit": "µM"},
      {"measurement": "TGI", "setting": "DMS 114 small cell lung", "value": 2160, "unit": "nM"},
      {"measurement": "TGI", "setting": "RXF 393 renal", "value": 3.45, "unit": "µM"},
      {"measurement": "TGI", "setting": "HCT-116 colon", "value": 1620, "unit": "nM"},
      {"measurement": "TGI", "setting": "NCI-H522 lung", "value": 928, "unit": "nM"},
      {"measurement": "TGI", "setting": "DMS 273 small cell lung", "value": 1870, "unit": "nM"},
      {"measurement": "TGI", "setting": "OVCAR-4 ovarian", "value": 2400, "unit": "nM"},
      {"measurement": "TGI", "setting": "SF-295 CNS", "value": 4.63, "unit": "µM"},
      {"measurement": "TGI", "setting": "EKVX NSCLC", "value": 4.12, "unit": "µM"},
      {"measurement": "TGI", "setting": "KM20L2 colon", "value": 2890, "unit": "nM"},
      {"measurement": "TGI", "setting": "NCI-H460 lung", "value": 19.4, "unit": "µM"},
      {"measurement": "TGI", "setting": "TK-10 renal", "value": 3.62, "unit": "µM"},
      {"measurement": "TGI", "setting": "LXFL 529 NSCLC", "value": 2590, "unit": "nM"},
      {"measurement": "TGI", "setting": "SNB-78 CNS", "value": 3.07, "unit": "µM"},
      {"measurement": "TGI", "setting": "HL-60(TB) leukemia", "value": 3.92, "unit": "µM"},
      {"measurement": "TGI", "setting": "UACC-62 melanoma", "value": 2980, "unit": "nM"},
      {"measurement": "TGI", "setting": "COLO 205 colon", "value": 3.01, "unit": "µM"},
      {"measurement": "TGI", "setting": "MOLT-4 leukemia", "value": 694, "unit": "nM"},
      {"measurement": "TGI", "setting": "A498 renal", "value": 3.6, "unit": "µM"},
      {"measurement": "TGI", "setting": "CAKI-1 renal", "value": 3.78, "unit": "µM"},
      {"measurement": "TGI", "setting": "KM12 colon", "value": 2920, "unit": "nM"}
    ]}
  ]
}
